Reference: ChEMBL document CHEMBL4184172, “Isosteric ribavirin analogues: Synthesis and antiviral activities” (Bioorg Med Chem Lett, 2018)
≈ marks a conversion by molar mass, not a printed value. Calls of active or inactive are those of the source. No cut-off for these calls is given here.

What was measured:
Influenza A virus = assay: Antiviral activity against Influenza A virus H5N1 (A/duck/Novosibirsk/56/2005) infected in pig SPEV cells assessed as protection against virus-induced cytopathic effect; type: functional, organism-based; conditions: for Activity: Influenza A virus (A/duck/Novosibirsk/56/2005(H5N1))
Vero C1008 = assay: Cytotoxicity against African green monkey Vero E6 cells assessed as alterations in cell morphology at 1000 ug/ml by microscopic analysis; type: cell-based; conditions: chlorocebus sabaeus
[1] = Cytotoxicity against pig SPEV cells at 150 ug/ml by microscopic analysis; type: cell-based, Sus scrofa
Hepatitis C virus = assay: Antiviral activity against Hepatitis C virus infected in pig SPEV cells assessed as protection against virus-induced cytopathic effect; type: functional, organism-based, Hepacivirus hominis
[2] = Cytotoxicity against pig SPEV cells by microscopic analysis; type: cell-based, Sus scrofa
Human alphaherpesvirus 1 = assay: Antiviral activity against Human herpesvirus 1 L2 infected in African green monkey Vero E6 cells assessed as protection against virus-induced cytopathic effect; type: functional, organism-based; conditions: Human alphaherpesvirus 1, L2, Vero C1008
[3] = Cytotoxicity against African green monkey Vero E6 cells assessed as alterations in cell morphology by microscopic analysis; type: cell-based, Vero C1008; conditions: chlorocebus sabaeus

Compound	Activity (Influenza A virus)	Activity (Vero C1008)	Activity [1]	IC50 (Influenza A virus) [µg/mL]	IC50 (Hepatitis C virus) [µg/mL]	CC50 [2] [µg/mL]	IC50 (Human alphaherpesvirus 1) [µg/mL]	CC50 [3] [µg/mL]
Cc1nc(-c2ncn([C@H]3C[C@H](O)[C@@H](CO)O3)n2)no1	inactive	Non-Toxic	Non-Toxic					
Cc1nc(-c2ncn([C@@H]3O[C@H](CO)[C@@H](O)[C@H]3O)n2)no1		Non-Toxic	Non-Toxic	50 (≈ 177 µM)				
CC(C)c1nc(-c2ncn([C@@H]3O[C@H](CO)[C@@H](O)[C@H]3O)n2)no1	inactive	Non-Toxic	Non-Toxic					
NC(=O)c1ncn([C@@H]2O[C@H](CO)[C@@H](O)[C@H]2O)n1 [RIBAVIRIN]				12.5 (≈ 51.2 µM)	12.5 (≈ 51.2 µM)	75 (≈ 307 µM)		
OC[C@H]1O[C@@H](n2cnc(-c3ncon3)n2)[C@H](O)[C@@H]1O		Non-Toxic	Non-Toxic				250 (≈ 929 µM)	
OC[C@H]1O[C@@H](n2cnc(-c3noc(-c4ccccc4)n3)n2)[C@H](O)[C@@H]1O		Non-Toxic	Non-Toxic		8.8 (≈ 25.5 µM)			380 (≈ 1100 µM)
